Consider 15 molecules from ChEMBL document CHEMBL1201862, “PubChem BioAssay data set” (2004).

The term IC50 denotes the concentration needed to halve the response being measured. Broadly, the AC50 is the midpoint of the concentration-response curve, whichever way the signal moves. What is called EC50 is the concentration that produces a half-maximal response.

Assay [1] has as its system Vero. Description: cells. The format is functional, cell-based. The conditions noted are these: Chlorocebus sabaeus.
The target in assay [2] is FAD-linked sulfhydryl oxidase ALR (Homo sapiens, UniProt P55789). The assay is described as follows: ALR-catalysed DTT oxidation blockers – biochemical, H2O2 detection, luminescence, cherry-pick, dose response (AID 493248).
Another assay deals with T1, Coagulation factor XII (Homo sapiens, UniProt P00748).
T1 sequence (P00748 whole entry): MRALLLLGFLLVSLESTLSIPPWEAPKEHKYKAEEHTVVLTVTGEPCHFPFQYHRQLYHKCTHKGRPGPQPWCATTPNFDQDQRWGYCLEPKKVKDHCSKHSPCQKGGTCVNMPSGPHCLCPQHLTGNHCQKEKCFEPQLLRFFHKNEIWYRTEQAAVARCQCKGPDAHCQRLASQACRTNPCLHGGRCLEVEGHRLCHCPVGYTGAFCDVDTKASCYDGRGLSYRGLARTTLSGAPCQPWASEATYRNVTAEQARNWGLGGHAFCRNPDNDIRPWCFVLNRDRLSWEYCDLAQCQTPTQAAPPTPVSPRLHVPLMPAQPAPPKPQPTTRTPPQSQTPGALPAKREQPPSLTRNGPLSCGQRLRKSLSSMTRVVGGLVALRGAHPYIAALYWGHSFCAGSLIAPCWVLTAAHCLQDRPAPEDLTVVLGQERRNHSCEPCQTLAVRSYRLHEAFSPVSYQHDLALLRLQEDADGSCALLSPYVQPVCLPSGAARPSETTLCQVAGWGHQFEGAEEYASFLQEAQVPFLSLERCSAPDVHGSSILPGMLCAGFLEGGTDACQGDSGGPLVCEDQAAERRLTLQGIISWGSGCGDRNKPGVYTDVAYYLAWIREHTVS
Format: functional.

Assay [3] has as its system Vero. Description: cells. The format is functional. The conditions noted are these: Chlorocebus sabaeus.
For assay [4], the target named is T2, Ubiquitin-conjugating enzyme E2 N (Homo sapiens, UniProt P61088).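 Further: Dose-response confirmation in a TR-FRET assay detecting UBC13-driven polyubiquitin chain formation, inhibition measured.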
T2 sequence (P61088 whole entry): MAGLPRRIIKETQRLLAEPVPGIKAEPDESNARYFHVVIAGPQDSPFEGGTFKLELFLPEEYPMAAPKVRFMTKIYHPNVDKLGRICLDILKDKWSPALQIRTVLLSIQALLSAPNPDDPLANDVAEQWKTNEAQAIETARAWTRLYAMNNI
The format is functional.

Assay [5] has as its target T3, Replicative DNA helicase DnaB (Mycobacterium tuberculosis, UniProt P9WMR3).
T3 sequence (P9WMR3 whole entry): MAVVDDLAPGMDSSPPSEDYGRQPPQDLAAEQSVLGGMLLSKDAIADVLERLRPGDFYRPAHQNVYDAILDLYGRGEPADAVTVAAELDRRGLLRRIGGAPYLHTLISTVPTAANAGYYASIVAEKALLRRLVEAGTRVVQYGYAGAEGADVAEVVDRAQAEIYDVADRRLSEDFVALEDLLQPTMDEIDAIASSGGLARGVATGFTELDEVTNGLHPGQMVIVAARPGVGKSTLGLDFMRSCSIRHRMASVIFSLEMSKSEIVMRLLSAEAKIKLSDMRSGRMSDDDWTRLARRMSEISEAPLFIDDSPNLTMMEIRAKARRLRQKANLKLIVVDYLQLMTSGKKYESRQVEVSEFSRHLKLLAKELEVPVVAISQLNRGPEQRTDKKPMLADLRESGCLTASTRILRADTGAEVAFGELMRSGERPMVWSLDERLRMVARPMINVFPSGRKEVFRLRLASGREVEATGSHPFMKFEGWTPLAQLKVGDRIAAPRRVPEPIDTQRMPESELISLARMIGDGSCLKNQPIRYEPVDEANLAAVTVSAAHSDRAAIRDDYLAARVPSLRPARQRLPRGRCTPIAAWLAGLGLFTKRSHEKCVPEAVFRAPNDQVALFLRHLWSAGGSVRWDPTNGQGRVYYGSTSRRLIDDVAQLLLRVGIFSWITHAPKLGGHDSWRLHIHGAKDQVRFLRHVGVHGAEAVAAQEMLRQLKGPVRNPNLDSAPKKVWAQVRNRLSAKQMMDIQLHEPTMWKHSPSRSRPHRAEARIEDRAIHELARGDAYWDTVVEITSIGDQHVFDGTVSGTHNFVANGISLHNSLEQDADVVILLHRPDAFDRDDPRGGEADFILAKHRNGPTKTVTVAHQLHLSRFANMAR
The assay is described as follows: DnaB intein splicing inhibitors, dose response, biochemical, cell-free fluorescence (AID 449749). The format is functional.

The target of the next assay is T4, Protein RecA (Mycobacterium tuberculosis, UniProt P9WHJ3).
T4 sequence (P9WHJ3 whole entry): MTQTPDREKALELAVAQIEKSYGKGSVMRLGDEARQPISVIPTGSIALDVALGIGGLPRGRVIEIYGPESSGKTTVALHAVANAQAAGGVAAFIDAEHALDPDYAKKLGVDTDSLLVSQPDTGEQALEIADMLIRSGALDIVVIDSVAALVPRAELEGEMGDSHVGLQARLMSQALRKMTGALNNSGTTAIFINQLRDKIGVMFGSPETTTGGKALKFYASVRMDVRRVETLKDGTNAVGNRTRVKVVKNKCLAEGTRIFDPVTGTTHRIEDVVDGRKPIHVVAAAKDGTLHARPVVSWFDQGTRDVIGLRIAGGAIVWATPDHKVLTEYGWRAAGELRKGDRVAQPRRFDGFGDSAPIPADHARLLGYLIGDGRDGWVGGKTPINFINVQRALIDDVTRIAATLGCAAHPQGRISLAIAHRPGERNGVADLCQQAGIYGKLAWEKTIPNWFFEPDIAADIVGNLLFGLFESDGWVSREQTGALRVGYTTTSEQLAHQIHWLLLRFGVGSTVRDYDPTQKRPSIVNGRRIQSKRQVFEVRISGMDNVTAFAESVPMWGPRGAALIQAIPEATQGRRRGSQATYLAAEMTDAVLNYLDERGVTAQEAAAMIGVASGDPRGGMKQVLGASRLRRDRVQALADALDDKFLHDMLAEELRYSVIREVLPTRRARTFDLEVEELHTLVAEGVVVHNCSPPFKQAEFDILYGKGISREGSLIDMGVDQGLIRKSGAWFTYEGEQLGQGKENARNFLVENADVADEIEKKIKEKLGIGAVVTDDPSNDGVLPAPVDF
The assay is described as follows: Fluorescence Cell-Free Homogeneous Dose Retest to Identify Inhibitors of RecA-Intein Splicing Activity. [Related pubchem assays (depositor defined):AID2097, AID2223, AID489010, AID492950]. The format is functional.

The next assay concerns the target T5, Leucine aminopeptidase (Plasmodium falciparum 3D7, UniProt Q8IL11).
T5 sequence (Q8IL11 whole entry): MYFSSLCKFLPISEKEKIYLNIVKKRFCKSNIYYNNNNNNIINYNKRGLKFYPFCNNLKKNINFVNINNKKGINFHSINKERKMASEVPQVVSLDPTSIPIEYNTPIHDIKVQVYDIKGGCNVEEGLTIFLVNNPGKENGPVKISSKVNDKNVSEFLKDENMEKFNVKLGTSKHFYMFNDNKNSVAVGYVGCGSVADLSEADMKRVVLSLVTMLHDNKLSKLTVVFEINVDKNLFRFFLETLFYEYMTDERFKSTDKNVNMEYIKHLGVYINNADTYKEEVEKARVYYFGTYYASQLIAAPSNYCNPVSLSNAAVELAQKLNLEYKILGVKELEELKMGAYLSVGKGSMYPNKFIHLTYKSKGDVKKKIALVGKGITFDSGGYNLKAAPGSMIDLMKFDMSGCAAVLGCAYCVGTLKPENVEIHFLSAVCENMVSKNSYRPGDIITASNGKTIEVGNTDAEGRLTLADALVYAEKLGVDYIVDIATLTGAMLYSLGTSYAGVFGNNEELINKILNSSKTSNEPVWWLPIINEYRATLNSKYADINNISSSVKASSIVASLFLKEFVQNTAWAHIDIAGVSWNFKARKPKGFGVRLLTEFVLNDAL
Description: P. falciparum M17LAP inhibitors, primary screen, biochemical, fluorogenic H-Leu-NHMec substrate, 1536-well (AID 1619). The format is functional.

Assay [6] can be described thus: Luminescence Cell-Based Dose Retest to Confirm Inhibitors of Cancer Stem Cells. [Related pubchem assays (depositor defined):AID2717, AID2721]. The format is functional. The conditions noted are these: Homo sapiens.
A further assay has as its target Nonstructural protein 1 (Influenza A virus, UniProt Q194T2). The format is functional, Influenza A virus (A/California/07/2009(H1N1)).
Assay [7] addresses Glyceraldehyde-3-phosphate dehydrogenase (Homo sapiens, UniProt P04406).
Assay [8] in a line: microbe, parasite or virus in culture. The conditions noted are these: Mycobacterium tuberculosis. Format: functional.
Another assay has as its system INS1. The assay is described as follows: INS-1E survival protection against cytokine death – cell-based, luminescence, retest, dose response (AID 449756).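 Further: cell death triggered by IL-1 beta plus TNF-alpha plus IFN-gamma mixture; protective hits raise ATP signal compared with cytokine alone wells.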 The format is functional. The conditions noted are these: Rattus norvegicus.
Another assay has as its target Cytochrome P450 2D6 (Homo sapiens, UniProt P10635).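 Further: CYP2D6 member of a cytochrome P450 panel assay.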
The target in the next assay is Cytochrome P450 2C19 (Homo sapiens, UniProt P33261). Description: Cytochrome panel assay with activity outcomes. Panel member name: p450-cyp2c19 Compounds with AC50 equal or less than 10 uM are considered active. Format: functional. The conditions noted are these: read-out: AC50.

The structures appear in SMILES notation. The source made the active and inactive calls. Where only a bound is given, the exact number is not on record here.

Sequence of Nonstructural protein 1 (Q194T2 whole entry): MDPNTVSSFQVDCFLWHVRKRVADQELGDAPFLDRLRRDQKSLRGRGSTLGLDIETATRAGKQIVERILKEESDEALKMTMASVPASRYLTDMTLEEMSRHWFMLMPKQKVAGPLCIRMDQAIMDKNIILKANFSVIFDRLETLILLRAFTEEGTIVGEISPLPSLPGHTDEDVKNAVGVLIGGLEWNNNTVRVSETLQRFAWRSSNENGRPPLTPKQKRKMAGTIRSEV
Sequence of Glyceraldehyde-3-phosphate dehydrogenase (P04406 whole entry): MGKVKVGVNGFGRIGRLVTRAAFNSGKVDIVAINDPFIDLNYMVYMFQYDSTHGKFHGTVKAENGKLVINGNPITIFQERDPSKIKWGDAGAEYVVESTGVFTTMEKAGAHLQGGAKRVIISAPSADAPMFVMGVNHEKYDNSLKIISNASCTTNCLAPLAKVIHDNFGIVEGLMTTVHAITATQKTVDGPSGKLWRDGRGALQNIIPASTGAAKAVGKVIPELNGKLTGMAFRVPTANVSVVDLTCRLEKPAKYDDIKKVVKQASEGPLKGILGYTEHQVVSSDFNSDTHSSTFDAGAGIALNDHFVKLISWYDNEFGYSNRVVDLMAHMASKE
Sequence of FAD-linked sulfhydryl oxidase ALR (P55789 whole entry): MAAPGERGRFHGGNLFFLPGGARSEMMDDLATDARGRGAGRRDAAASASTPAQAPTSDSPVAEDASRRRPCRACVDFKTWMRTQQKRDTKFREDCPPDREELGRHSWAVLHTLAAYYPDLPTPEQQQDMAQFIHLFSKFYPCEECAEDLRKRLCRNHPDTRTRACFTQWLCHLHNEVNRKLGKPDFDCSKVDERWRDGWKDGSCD
Sequence of Cytochrome P450 2C19 (P33261 whole entry): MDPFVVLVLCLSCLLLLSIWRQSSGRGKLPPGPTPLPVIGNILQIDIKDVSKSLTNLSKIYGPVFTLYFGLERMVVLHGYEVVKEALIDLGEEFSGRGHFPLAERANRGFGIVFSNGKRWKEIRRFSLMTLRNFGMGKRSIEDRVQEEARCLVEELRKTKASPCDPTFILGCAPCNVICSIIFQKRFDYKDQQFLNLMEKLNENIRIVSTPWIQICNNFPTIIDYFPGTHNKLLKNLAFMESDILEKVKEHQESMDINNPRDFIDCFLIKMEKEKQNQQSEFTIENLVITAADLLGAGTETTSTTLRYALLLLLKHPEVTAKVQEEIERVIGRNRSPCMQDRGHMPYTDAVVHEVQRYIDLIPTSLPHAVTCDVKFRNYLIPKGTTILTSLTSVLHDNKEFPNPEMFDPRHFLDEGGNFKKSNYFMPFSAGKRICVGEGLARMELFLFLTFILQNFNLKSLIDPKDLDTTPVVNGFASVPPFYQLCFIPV
Sequence of Cytochrome P450 2D6 (P10635 whole entry): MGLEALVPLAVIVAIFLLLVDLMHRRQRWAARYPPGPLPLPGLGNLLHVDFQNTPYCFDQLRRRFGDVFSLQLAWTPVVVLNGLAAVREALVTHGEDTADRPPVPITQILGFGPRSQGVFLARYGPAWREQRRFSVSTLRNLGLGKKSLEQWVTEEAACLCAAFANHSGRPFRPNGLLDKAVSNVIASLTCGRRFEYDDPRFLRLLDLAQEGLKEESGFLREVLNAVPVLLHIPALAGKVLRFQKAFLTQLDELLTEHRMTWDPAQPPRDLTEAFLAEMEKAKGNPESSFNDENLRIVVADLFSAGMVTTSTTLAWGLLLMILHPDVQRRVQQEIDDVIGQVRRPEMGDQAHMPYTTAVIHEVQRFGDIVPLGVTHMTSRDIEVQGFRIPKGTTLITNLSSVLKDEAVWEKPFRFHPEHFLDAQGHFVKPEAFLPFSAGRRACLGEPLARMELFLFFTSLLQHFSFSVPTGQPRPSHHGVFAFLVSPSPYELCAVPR

As for `Nc1nc(C2CC2)c(Sc2sc(N)nc2C2CC2)s1`, the IC50 in the assay with Vero [1] is > 25 µM (active). Moreover, the AC50 in assay [2] was 0.511 µM (active).
For `O=[N+]([O-])c1cccc(-c2cn3c([n+]2-c2ccccc2)SCC3)c1`, in the assay with Vero [1], the IC50 is 5.3 µM (active).
Consider `O=C(NCCCN1CCCC1)c1ccc2c(Cl)c3c(nc2c1)CCCC3`, for which the IC50 at Coagulation factor XII was > 50 µM (inconclusive); in the assay with Vero [1], > 25 µM (active). In addition, in the assay on Vero [3], the CC50 is > 25 µM (active). Further, the AC50 in assay [2] is 0.01 µM (active).
For `CCOC(=O)c1ccc(NC(=O)c2[nH]cnc2C(=O)NC2CCN(C(=O)OC(C)(C)C)CC2)cc1`, in [4], the IC50 is > 20 µM (inactive).
Consider `CC1=NN(CCC#N)C(=O)/C1=C/c1ccc(N(C)C)cc1`, for which the AC50 in assay [5] was 2.79 µM (inconclusive). Also, the EC50 at Protein RecA is 3.17 µM (active). In addition, the IC50 at Leucine aminopeptidase was 120 µM (active).
As for `CCCCCc1cc(=O)oc2c(C(CCN(CC)CC)c3cc(OC)c(OC)c(OC)c3)c(OC)cc(OC)c12` (stereo not drawn), the IC50 in assay [4] is > 20 µM (inactive). In [6], the AC50 was 7.71 µM (active).
With `COc1ccc(C2C3=C(CC(C)(C)CC3=O)Oc3ncn(Cc4ccco4)c(=N)c32)cc1` (stereo not drawn), the concentration for half-maximal inhibition (IC50) on Nonstructural protein 1 is > 100 µM (active).
For `O=C(Nc1nncs1)c1cccc(S(=O)(=O)N2CCCC2)c1`, the IC50 in assay [7] is > 100 µM (not active).
On to `CCn1c(C)nc2cc(C(=O)OC(C(F)(F)C(F)F)C(F)(F)C(F)F)ccc21`, for which the CC50 in the assay on Vero [3] is > 25 µM (active); in assay [8] it was > 40 µM (active). Moreover, the IC50 with Vero [1] was 24.4 µM (active).
Consider `Cc1ccc(CNC(=O)CSc2nc3ccsc3c(=O)n2Cc2ccc(C(=O)O)cc2)cc1`, for which, in assay [4], the IC50 is > 20 µM (inactive).
On to `CCOc1ccc(C(C(=O)NCC2CCCO2)N(C(=O)c2snc(C(N)=O)c2N)c2ccc3c(c2)OCCO3)cc1` (stereo not drawn), for which the IC50 in assay [4] was > 20 µM (inactive).
Regarding `Oc1ccc(C=NNC(=S)Nc2cccnc2)nc1`, the IC50 on Nonstructural protein 1 was 0.992 µM (active).
Turning to `Cc1ccc2ccc3cccnc3c2n1`, the AC50 with INS1 is 0.865 µM (active). The IC50 on Nonstructural protein 1 was 14.5 µM (active).
With `Cc1sc(N/N=C/c2cccnc2)nc1-c1ccccc1`, the AC50 at Cytochrome P450 2D6 was 0.794 µM (inconclusive); at Cytochrome P450 2C19, 0.501 µM (inconclusive). The CC50 in the assay on Vero [3] was > 25 µM (active). The IC50 in the assay on Vero [1] was > 25 µM (active).
In the case of `COc1cccc(S(=O)(=O)Nc2cnc3ccccc3c2)c1`, the IC50 in assay [7] is recorded as > 100 µM (not active).
